Structures can show the parent of a compound that is named as a salt.
What was measured:
[1] = Polymorphic conversion when heated; type: physicochemical
[2] = as described in WO '870; cited from earlier work
[3] = as described in WO '870; cited from earlier work; remark: listed apart in the source

Cc1cn(-c2cc(NC(=O)c3ccc(C)c(Nc4nccc(-c5cccnc5)n4)c3)cc(C(F)(F)F)c2)cn1 [Nilotinib HCl crystalline form T17, Nilotinib HCl]
conversion to other forms when heated [1]: does not convert to other forms when heated

Cc1cn(-c2cc(NC(=O)c3ccc(C)c(Nc4nccc(-c5cccnc5)n4)c3)cc(C(F)(F)F)c2)cn1 [Nilotinib HCl form A, Nilotinib HCl]
conversion to other polymorphs when heated [2]: converted to other polymorphs

Cc1cn(-c2cc(NC(=O)c3ccc(C)c(Nc4nccc(-c5cccnc5)n4)c3)cc(C(F)(F)F)c2)cn1 [Nilotinib HCl form B, Nilotinib HCl]
solubility in IPA [3]: not soluble in IPA

From patent US8592442B2, “Nilotinib HCl crystalline forms” (Teva Pharmaceutical Industries Ltd., priority 2008, dated 2013)
